# Data published in US20250277066A1, “Substituted Pyridine-2,6-Bis(Phenylenephenolate) Complexes with Enhanced Solubility that are Useful as Catalyst Components for Olefin Polymerization” (ExxonMobil Chemical Patents Inc., priority 2022, published 2025).
# Several values for one entry are separate records, joined by “and”; a condition that tells them apart may be missing. Identical values can stand only once.
# Columns and labels:
# [1] = Propylene polymerization (PP) in small-scale autoclave reactors: yield, quench time, catalyst activity; details: activator A
# Description: Solutions of the pre-catalysts were made using toluene (ExxonMobil Chemical—anhydrous, stored under N2) (98%) or isohexane (ExxonMobil Chemical—polymerization grade, and purified as described below). Pre-catalyst solutions were typically 0.25 mmol/L.
# Solvents, polymerization grade toluene and/or isohexanes were supplied by ExxonMobil Chemical Co. and are purified by passing through a series of columns: two 500 cc Oxyclear cylinders in series from Labclear (Oakland, Calif), followed by two 500 cc columns in series packed with dried […] (8-12 mesh; Aldrich Chemical Company), and two 500 cc columns in series packed with dried 5 Å mole sieves (8-12 mesh; Aldrich Chemical Company).
# Polymerization grade propylene (C3) was used and further purified by passing it through a series of columns: 2250 cc Oxiclear cylinder from Labclear followed by a 2250 cc column packed with 3 Å mole sieves (8-12 mesh; Aldrich Chemical Company), then two 500 cc columns in series packed with 5 Å mole sieves (8-12 mesh; Aldrich Chemical Company), then a 500 cc column packed with Selexsorb CD (BASF), and finally a 500 cc column packed with Selexsorb COS (BASF).
# Activation of the pre-catalysts was either by dimethylanilinium tetrakisperfluorophenylborate (Boulder Scientific or Albemarle Corp; Act ID=A) or is (hydrogenated tallow alkyl)methylammonium tetrakis(pentafluorophenyl)borate supplied as a 10 wt % solution in methylcyclohexane (Boulder Scientific; Act ID=B). Activators were typically used as a 0.25 mmol/L solution in toluene or isohexane.
# Tri-n-octylaluminum (TnOAl or TNOA, Neat, AkzoNobel) was also used as a scavenger prior to introduction of the activator and pre-catalyst into the reactor. TNOA was typically used as a 5 mmol/L solution in toluene or isohexane.
# Polymerizations were conducted in an inert atmosphere (N2) drybox using autoclaves equipped with an external heater for temperature control, glass inserts (internal volume of reactor=23.5 mL for C2 and C2/C8; 22.5 mL for C3 runs), septum inlets, regulated supply of nitrogen, ethylene and propylene, and equipped with disposable PEEK mechanical stirrers (800 RPM). The autoclaves were prepared by purging with dry nitrogen at 110° C. or 115° C. for 5 hours and then at 25° C. for 5 hours.
# The reactor was prepared as described above, then heated to 40° C., and then purged with propylene gas at atmospheric pressure. Toluene or isohexanes, liquid propylene (1.0 mL) and scavenger (TNOA, 0.5 μmol) were added via syringe. The reactor was then brought to process temperature (70° C. or 100° C.) while stirring at 800 RPM. The activator solution, followed by the pre-catalyst solution, were injected via syringe to the reactor at process conditions. Reactor temperature was monitored and typically maintained within +/−1° C. Polymerizations were halted by addition of approximately 50 psi compressed dry air gas mixture to the autoclaves for approximately 30 seconds. The polymerizations were quenched based on a predetermined pressure loss (maximum quench value) or for a maximum of 30 minutes. The reactors were cooled and vented. The polymers were isolated after the solvent was removed in-vacuo. The actual quench time (s) is reported as quench time (s). Yields reported include total weight of polymer and residual catalyst. Catalyst activity is reported as grams of polymer per mmol transition metal compound per hour of reaction time (g/mmol·hr).
# Polymerization results are collected in Tables 2 below. “Ex #” stands for example number. Example numbers starting with a “C” are comparative examples. “Cat ID” identifies the pre-catalyst used in the experiment. Corresponding numbers identifying the pre-catalyst (also referred to as pre-catalyst, catalyst, complex or compound) are located in the synthetic experimental section. T(° C.) is the polymerization temperature which was typically maintained within +/−1° C. “Yield” is polymer yield, and is not corrected for catalyst residue. […]
# [2] = DSC melting point of polymers (TA-Q100); assay type: physicochemical
# Description: Differential Scanning Calorimetry (DSC) measurements were performed on a TA-Q100 instrument to determine the melting point of the polymers. Samples were pre-annealed at 220° C. for 15 minutes and then allowed to cool to room temperature overnight. The samples were then heated to 220° C. at a rate of 100° C./minute and then cooled at a rate of 50° C./minute. Melting points were collected during the heating period. The results are reported in the Table 2 under the heading, Tm (° C.).
# [3] = Rapid GPC of polymers (Mn, Mw, Mz, PDI); assay type: physicochemical; design: Mn / Mw / Mz: unit not given here
# Description: For analytical testing, polymer sample solutions were prepared by dissolving polymer in 1,2,4-trichlorobenzene (TCB, 99+% purity from Sigma-Aldrich) containing 2,6-di-tert-butyl-4-methylphenol (BHT, 99% from Aldrich) at 165° C. in a shaker oven for approximately 3 hours. The typical concentration of polymer in solution was between 0.1 to 0.9 mg/mL with a BHT concentration of 1.25 mg BHT/mL of TCB. Samples were cooled to 135° C. for testing.
# High temperature size exclusion chromatography was performed using an automated “Rapid GPC” system as described in U.S. Pat. Nos. 6,491,816; 6,491,823; 6,475,391; 6,461,515; 6,436,292; 6,406,632; 6,175,409; 6,454,947; 6,260,407; and 6,294,388; each of which is incorporated herein by reference. Molecular weights (weight average molecular weight (Mw), number average molecular weight (Mn) and z average molecular weight (Mz)) and molecular weight distribution (MWD=Mw/Mn), which is also sometimes referred to as the polydispersity (PDI) of the polymer, were measured by Gel Permeation Chromatography using a Symyx Technology GPC equipped with evaporative light scattering detector (ELSD) and calibrated using polystyrene standards (Polymer Laboratories: Polystyrene Calibration Kit S-M-10: Mp (peak Mw) between 5,000 and 3,390,000). Alternatively, samples were measured by Gel Permeation Chromatography using a Symyx Technology GPC equipped with dual wavelength infrared detector and calibrated using polystyrene standards (Polymer Laboratories: Polystyrene Calibration Kit S-M-10: Mp (peak Mw) between 580 and 3,039,000). […] No column spreading corrections were employed. Numerical analyses were performed using Epoch® software available from Symyx Technologies or Automation Studio software available from Freeslate. The molecular weights obtained are relative to linear polystyrene standards. Molecular weight data is reported in Table 2 under the headings Mn, Mw, Mz and PDI as defined above.
# [4] = Solubility of complexes in isohexane (Method 1 or Method 2); assay type: physicochemical; details: ambient temperature (20° C.-25° C.), mass includes residual solvent
# Description: Solubility studies for all other complexes were performed using material as synthesized. […] Solvents used were sparged with nitrogen (30-60 minutes) and dried over 3 Å mole sieves. Unless stated otherwise all measurements were performed at ambient temperature (20° C.-25° C.).
# General procedure: Solubility was determined using the following Method 1 or Method 2. For calculations, a value of 0.672 g/mL was used for the density of isohexane.
# Method 1: A tared vial was loaded with a small amount of the complex (actual mass recorded, including any residual solvent as noted above, typically 5-30 mg). Then a small stir bar (8 mm) was added. Solvent was then added and the mixture was stirred rapidly (1000 rpm). […] This process was repeated until either a clear solution was obtained (no visible solids or murkiness) or the vial was full. As the mixture approached homogeneity (i.e., few remaining solids observed) the volume of the solvent additions was kept small (<1 mL) to minimize excess beyond the solvent required to achieve homogeneity. The stir bar was then removed and the mass of the mixture was measured. If a clear solution had formed then the solubility of the complex was calculated as a single value, based on the mass of complex and the amount of solvent added to achieve a homogeneous solution. If the mixture remained heterogeneous (visible solids or murky), then the value reported is given as being “less than” the calculated value.
# Method 2: A measured amount of complex (actual mass recorded, including any residual solvent as noted above) was added to a tared vial, followed by a stir bar. Dry isohexanes were added in small portions and the resulting mixture was stirred after each portion of isohexanes. If a clear solution had formed then the solubility was reported as a range, the lower bound of solubility calculated using the total solvent added to achieve a homogenous solution and the upper bound of solubility calculated using the total solvent measured prior to achieving a homogenous solution. If the mixture remained heterogeneous (visible solids or murky), the upper bound of solubility was calculated using the total solvent added. Formula used to calculate solubility are listed below. Solvent present in the complex is included in the mass and formula weight of the complexes.
# [5] = polypropylene made with activator A at 70° C.
# [6] = polypropylene made with activator A at 100° C.
# [7] = polypropylene made with activator A at 70° C., Mw/Mn
# [8] = polypropylene made with activator A at 100° C., Mw/Mn
# [9] = polymer made with activator A, T 70 ° C.
Compound,Activity ([1]; T 70° C.),Activity ([1]; T 100° C.),"Tm [2, 5]","Tm [2, 6]","Mn [3, 5]","Mw [3, 5]","Mz [3, 5]","PDI [3, 7]","Mn [3, 6]","Mw [3, 6]","Mz [3, 6]","PDI [3, 8]","Tm [2, 9] [°C]","Mn [3, 9]","Mw [3, 9]","Mz [3, 9]","PDI [3, 9]",Solubility (s) in Isohexane [4] [µM],Solubility (s) in Isohexane (wt %) [4] [wt %]
Cc1cc2c(c(C34CC5CC(C)(CC(C)(C5)C3)C4)c1)[O][Hf-]1([CH3])([CH3])[O]c3c(cc(C)cc3C34CC5CC(C)(CC(C)(C5)C3)C4)-c3ccccc3-c3cc(N4CCCC4)cc([n+]31)-c1ccccc1-2 [Complex 30],"7,103 g P/mmol cat • hr and 6,836 g P/mmol cat • hr and 8,533 g P/mmol cat • hr","4,453 g P/mmol cat • hr and 6,707 g P/mmol cat • hr and 8,689 g P/mmol cat • hr",163.3 °C and 163.5 °C and 164.8 °C,158.0 °C and 158.7 °C and 159.0 °C,"186,851 and 187,906 and 245,411","346,587 and 346,773 and 427,041","762,107 and 711,356 and 871,754",1.85 and 1.74,"86,554 and 106,308 and 121,006","147,732 and 177,827 and 199,815","301,600 and 354,753 and 438,188",1.71 and 1.67 and 1.65,,,,,,,
Cc1cc2[n+]3c(c1)-c1ccccc1-c1cc(C(C)(C)C)cc(C45CC6CC(CC(C6)C4)C5)c1[O][Zr-]3([CH3])([CH3])[O]c1c(cc(C(C)(C)C)cc1C13CC4CC(CC(C4)C1)C3)-c1ccccc1-2 [compound 3],"1,251,771 g P/mmol cat • hr",,,,,,,,,,,,150.7,"206,080","676,784","2,471,266",3.28,,
Cc1cc2c(c(C34CC5CC(CC(C5)C3)C4)c1)[O][Zr-]1([CH3])([CH3])[O]c3c(cc(C)cc3C34CC5CC(CC(C5)C3)C4)-c3ccccc3-c3cccc([n+]31)-c1ccccc1-2 [Complex 1],"5,668,800 g P/mmol cat • hr and 7,619,077 g P/mmol cat • hr and 6,920,571 g P/mmol cat • hr","3,931,500 g P/mmol cat • hr and 4,448,471 g P/mmol cat • hr and 2,644,800 g P/mmol cat • hr",147.5 °C and 147.3 °C and 148.1 °C,145.8 °C and 147.0 °C,"57,753 and 64,376 and 67,290","372,797 and 502,821 and 428,075","1,464,190 and 2,141,863 and 1,753,319",6.46 and 7.81 and 6.36,"28,762 and 34,553 and 48,560","152,087 and 155,815 and 169,007","646,646 and 665,846 and 624,200",5.29 and 4.51 and 3.48,,,,,,<600,<0.08
